{"source": "patent US6313375A", "about": "“Maize aquaporins and uses thereof” (Pioneer Hi-Bred International, Inc., priority 1999, dated 2001)", "key": {"maize aquaporins": {"tested_on": "maize aquaporins", "experiment": "Inhibition of water transport through maize aquaporins in the Xenopus oocyte swelling assay", "assay_type": "cell-based", "method": "(§1) The biological activity of aquaporins is usually determined with Xenopus oocyte swelling assays (Maurel et al, 1993). MIP cRNA is injected into oocytes and after a 3-day incubation the oocytes are shifted to a hypotonic medium. If water channel proteins are present in the plasma membrane, the oocytes swell and burst much faster than the control oocytes. In these conditions oocytes injected with the plasma membrane AtRD28 aquaporin (Daniels et al., 1994) or maize aquaporin cRNAs rapidly increase their volume, indicating the presence of a facilitated water-transport pathway. The osmotic water permeability coefficient (Pf) of the oocyte membrane increases 8-fold over the control. Mercurial compounds were characteristic inhibitors of many water-channel proteins. Water transport through maize aquaporins are inhibited 50% by 1 mM mercuric chloride and this inhibition is reversed by the reducing agent -mercaptoethanol."}, "Xenopus oocyte": {"tested_on": "Xenopus oocyte", "experiment": "Xenopus oocyte swelling assay (oocytes injected with aquaporin cRNA, shifted to hypotonic medium)", "assay_type": "cell-based", "conditions": "3-day incubation, versus control oocytes", "method": "as §1"}}, "data": [{"molecule": "OCCS", "note": "[-mercaptoethanol]", "values": [{"measurement": "reversal of the mercuric chloride inhibition of water transport through maize aquaporins", "setting": "maize aquaporins; reducing agent added after inhibition by 1 mM mercuric chloride", "value": "reversed"}]}, {"molecule": "[Cl][Hg][Cl]", "note": "[mercuric chloride]", "values": [{"measurement": "inhibition of water transport through maize aquaporins", "setting": "maize aquaporins; 1 mM mercuric chloride", "value": 50, "unit": "%"}]}, {"molecule": "AtRD28 aquaporin: plasma membrane AtRD28 aquaporin (Daniels et al., 1994), injected into oocytes as cRNA (protein, UniProt P30302 1-285, looked up) Aquaporin PIP2-3: MAKDVEGPDGFQTRDYEDPPPTPFFDAEELTKWSLYRAVIAEFVATLLFLYVTVLTVIGYKIQSDTKAGGVDCGGVGILGIAWAFGGMIFILVYCTAGISGGHINPAVTFGLFLARKVSLIRAVLYMVAQCLGAICGVGFVKAFQSSHYVNYGGGANFLADGYNTGTGLAAEIIGTFVLVYTVFSATDPKRNARDSHVPVLAPLPIGFAVFMVHLATIPITGTGINPARSFGAAVIFNKSKPWDDHWIFWVGPFIGATIAAFYHQFVLRASGSKSLGSFRSAANV", "values": [{"measurement": "increase of the osmotic water permeability coefficient (Pf) of the oocyte membrane over the control", "setting": "Xenopus oocyte", "value": 8, "unit": "fold"}]}]}
